Paper PMC3729937 (Biochemical and biophysical research communications, 2012)
Each block holds one molecule with its values, some of them ahead of it.

Columns and labels:
FGFR2 D2 domain [1] = biological target: FGFR2 D2 domain (Homo sapiens, UniProt P21802); experiment: ITC; assay type: binding
FGFR2 D2 domain [2] = biological target: FGFR2 D2 domain (Homo sapiens, UniProt P21802, A168S); experiment: ITC, supported by 1H-15N HSQC chemical shift perturbation; assay type: binding
[3] = biological target: fibroblast growth factor (FGF-1) (UniProt P05230 16-155); experiment: ITC
Sequence of fibroblast growth factor (FGF-1) (P05230 16-155): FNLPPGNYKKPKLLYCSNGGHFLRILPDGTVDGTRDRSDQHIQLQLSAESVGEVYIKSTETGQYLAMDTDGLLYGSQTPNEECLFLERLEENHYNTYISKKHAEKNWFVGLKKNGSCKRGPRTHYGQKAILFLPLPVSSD

Sequence of FGFR2 D2 domain (Homo sapiens, UniProt P21802, A168S) (P21802 145-255 A168S): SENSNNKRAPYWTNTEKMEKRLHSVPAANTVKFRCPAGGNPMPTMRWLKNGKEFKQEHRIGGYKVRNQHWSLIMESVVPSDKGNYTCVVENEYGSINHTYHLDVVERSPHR

Kd (FGFR2 D2 domain [1]): ~2200 nM
Kd (FGFR2 D2 domain [2]): ~22000 nM
Molecule: O=S(=O)(O)OC[C@H]1O[C@@](COS(=O)(=O)O)(O[C@H]2O[C@H](COS(=O)(=O)O)[C@@H](OS(=O)(=O)O)[C@H](OS(=O)(=O)O)[C@H]2OS(=O)(=O)O)[C@@H](OS(=O)(=O)O)[C@@H]1OS(=O)(=O)O [SOS, sucrose octasulfate]

Kd [3]: ~2000 nM
B1: wild type D2 domain of fibroblast growth factor receptor 2 (FGFR2), residues 145-255 (domain or fragment, human, UniProt P21802 145-255, looked up)
chain: SENSNNKRAPYWTNTEKMEKRLHAVPAANTVKFRCPAGGNPMPTMRWLKNGKEFKQEHRIGGYKVRNQHWSLIMESVVPSDKGNYTCVVENEYGSINHTYHLDVVERSPHR
